Data set [1] is described as follows: In vitro metabolic stability, hepatic microsomes (rat). Format: in vitro ADME. Conditions: pooled hepatic microsomes, pH 7.4; rat hepatic microsomes 1.0 mg/mL, 1 μM compound, NADPH and UDPGA cofactors; read-out: Microsome Stability T1/2 Rat. The protocol:
(§1) Pooled hepatic microsomes were diluted in […] potassium phosphate buffer to 1.0 mg/mL final protein concentration. Alamethicin was added to the microsomal fraction to permeabilize the membrane to allow access of the UDP-glucronic acid (UDPGA) co-substrate to the active site of the UDP glucuronosyl transferase (UGT) enzymes. The final concentration was 25 μg/mL (ratio 25 μg alamethicin/mg microsomal protein) and the microsomes were then placed on ice for 15 min prior to the start of the reaction. Test compound was added to a final concentration of 1 μM. Positive control compounds known to be metabolized by oxidative and UGT enzymes were used. The metabolic reaction was warmed to 37° C. and initiated by the addition of a cofactor mix that consisted of 1.55 mM NADP, 3.3 mM glucose-6-phosphate, 0.4 U/mL glucose-6-phosphate dehydrogenase, 5 mM UDP-glucuronic acid and 3.3 mM MgCl2 all dissolved in 0.1 M potassium phosphate buffer, pH 7.4. At 2, 12, 25, 45, and 65 min, 25 μL aliquots of the reaction mixture were transferred to plates containing 225 μl of quenching solution (acetonitrile containing 300 nM labetalol IS and 0.1% formic acid). After quenching, the plates are centrifuged at 3000×g for 30 minutes to precipitate proteins, and 10 μL aliquots of the supernatant are analyzed by HPLC coupled to a high-resolution mass spectrometer.
(§2) Quantification of test compounds and positive controls were performed using analyte/internal standard peak area ratios (PAR) measured on a Q-Exactive mass spectrometer (Thermo Scientific, San Jose, Calif.) coupled to an Aria Transcend LX-4 multiplex UHPLC system (Thermo Scientific, San Jose, Calif.). A Hypersil Gold C18 UHPLC column (1.9 […], 50×2.1 mm) was used with mobile phases A and B consisting of 0.1% formic acid in water and 0.1% formic acid in acetonitrile, respectively. […] Half-lives of compounds in the incubations were calculated from extracted data using GMSU/QuickCalc (Gubbs, Inc.) and data are summarized in the following Table 3.

A short description of data set [2]: In vitro metabolic stability, hepatic microsomes (human). Format: in vitro ADME. The following applies: pooled hepatic microsomes, pH 7.4; human hepatic microsomes 1.0 mg/mL, 1 μM compound, NADPH and UDPGA cofactors; read-out: Microsome Stability T1/2 Human. As for the experimental part:
as §1, §2

The test system of the next data set is HBsAg. Briefly: PHH assay for inhibition of HBsAg. Format: cell-based, genotype D (AD38-derived) HBV in primary human hepatocytes. The following applies: Hepatitis B virus, 288 h, read-out: HBsAg EC50. The protocol: Primary human hepatocytes (PHH) (Bioreclamation IVT) were plated on collagen-coated flasks using Plating Media (Life Technologies) containing William's Medium E supplemented with 1% penicillin/streptomycin, 4 μg/mL human recombinant insulin, 2 mM GlutaMAX, 15 mM HEPES, 1 μM dexamethasone, 5% fetal bovine serum, and 0.2% Torpedo Antibiotic Mix (Bioreclamation IVT). After a 4-hour incubation at 37° C., cells were switched to Maintenance Media (Life Technologies) containing William's Medium E supplemented with 0.5% penicillin/streptomycin, 6.25 µg/mL human recombinant insulin, 6.25 μg/mL human transferrin, 6.25 ng/mL selenous acid, 1.25 mg/mL bovine serum albumin, 5.35 μg/mL linoleic acid, 2 mM GlutaMAX, 15 mM HEPES, 0.1 μM dexamethasone, 2% fetal bovine serum, 2% DMSO, and 0.2% Torpedo Antibiotic Mix (Bioreclamation IVT). On the next day, PHH were infected with 500 genome equivalent per cell of genotype D (AD38-derived) HBV in Maintenance Media supplemented with 4% PEG 8000 (Promega). After 24 hour incubation, cells were washed three times with William's Medium E and fed with fresh Maintenance Media. At 3 days after infection, infected PHH cells were seeded on 96-well plates pre-coated with collagen at a density of 65000 cells per well containing serially diluted solutions of certain compounds disclosed herein or DMSO (1% final concentration) in a final volume of 125 μl of Maintenance Media (Life Technologies) containing William's Medium E supplemented with 0.5% penicillin/streptomycin, 6.25 μg/mL human recombinant insulin, 6.25 μg/mL human transferrin, 6.25 ng/mL selenous acid, 1.25 mg/mL bovine serum albumin, 5.35 μg/mL linoleic acid, 2 mM GlutaMAX, 15 mM HEPES, 0.1 μM dexamethasone, 5% fetal bovine serum, 1 mM 1-amininobenzotriaole, and 0.2% Torpedo Antibiotic Mix (Bioreclamation IVT). Media with compounds was replenished every 2-3 days. After an incubation time of 12 days, secreted HBsAg in the supernatant were measured using a multiplex chemiluminescent (Mesoscale discovery, MSD) assay using capture and detection antibody pairs specific for HBsAg. Comparative Example 1 and Comparative Example 2 have the following structures and were prepared according to International Publication No. WO 2015/113990.

Each structure is given as a SMILES string.

In general, EC50 refers to the concentration giving half of the maximal effect.

As for `COCCCOc1cc2c(cc1Cl)-c1cc(=O)c(C(=O)O)cn1[C@H](C(C)(C)C)C2` [Comparative Example 2], the half-life at 1 μM in data set [1] stood at 3.83 h; in data set [2], 4.9 h. Further, in the data set with HBsAg, the 50% effective concentration (EC50) amounted to 0.5 nM.

In the case of `COCCCOc1cc2c(cc1Cl)-c1cc(=O)c(C(=O)O)cn1N(C(C)(C)C)C2` [Example 2, 6-(tert-Butyl)-10-chloro-9-(3-methoxypropoxy)-2-oxo-6,7-dihydro-2H-pyrido[2,1-a]-phthalazine-3-carboxylic acid], the half-life at 1 μM in data set [1] and in data set [2] was > 5.83 h throughout. Moreover, the EC50 with HBsAg came to 3 nM.

`COCCCOc1cc2c(cc1Cl)-c1cc(=O)c(C(=O)O)cn1[C@H](C1(C)CC1)C2` [Comparative Example 1]: the values for the half-life at 1 μM in data set [1] and in data set [2] were 3.82 h and 3.9 h, respectively. Moreover, the EC50 in the data set on HBsAg was found to be 1.8 nM.

Source of the values: patent US10100052B2, “Compounds for the treatment of hepatitis B virus infection” (Gilead Sciences, Inc., priority 2016, dated 2018).
